We go through 20 compounds from patent publication US11534443B2, “Quinazoline compounds, preparation method, use, and pharmaceutical composition thereof” (INSTITUTE OF MATERIA MEDICA, CHINESE ACADEMY OF MEDICAL …, priority 2016, dated 2022).

In test [1] the target is PI3Kα (Homo sapiens (Human), UniProt P42336). The experiment in a line: Biochemical evaluation of activity of PI3Kα (Kinase-Glo luminescence kinase assay). The note with it: 25 μM ATP, 50 μM PIP2, 1 h at room temperature. On the procedure:
The potency of compounds in the present intention against PI3Kα was assessed by in vitro kinase assay. The kinase activity of PI3Kα was determined by detecting the level of ADP produced in the kinase reaction with luciferase-based luminescence detection.
The Kinase-Glo™ Kinase Assay Kit was purchased from Promega. All assays were performed at room temperature using white OptiPlate™-384 well plate. The PI3Kα kinase was purchased from Invitrogen. The substrate was PIP2 from Invitrogen. The kinase buffer contained 50 mM Hepes (pH 7.5), 3 mM MgCl2, 100 mM NaCl, 1 mM EGTA, 0.03% CHAPS and 2 mM DTT. […] The substrate solution contained 100 μM PIP2 and 50 μM ATP. The test compound was diluted to 10 mM in 100% DMSO and serially diluted three times into ten different concentrations in 100% DMSO. The compound diluted in 100% DMSO was diluted 25-fold in 1×kinase buffer. 2.5 μL of the diluted compound solution and 2.5 μL PI3Kα kinase solution were added to each well of a 384-well plate. The reaction was initiated by addition of 5 μL substrate solution to each well. […] The plate was then covered and the reaction was allowed to proceed for one hour at room temperature, followed by the addition of 10 μL Kinase-Glo™ reagent to each well to stop the reaction.
The percentage of inhibition was calculated as follows: Inhibition %=100−(max−sample RLU)/(max−min)*100
wherein sample RLU was the luminescence reading for a given compound concentration, min was the reading of DMSO control, and max was the reading of the enzyme-free control. The IC50 value was calculated with the XLfit program in Excel.
On the technique in general: Kinase-Glo measures the ATP left after a reaction by luminescence.

The subject of test [2] is human lung cancer cell NCI-H460. As to the kind of experiment: Tumor cell viability by MTT assay. The class given is cell-based. The procedure:
After 24 hours, 100 μL of fresh medium containing different concentrations of test compounds and the corresponding solvent control was added into each well to a final concentration of DMSO less than 0.2%. Six to nine concentration groups were set for each test compound, and three parallel wells were set for each group. The plate was incubated at 5% CO2, 37° C. for 96 hours. 20 μL of freshly prepared PBS solution containing 5 mg/mL MTT was added to each well. The supernatant was discarded after incubation for another 4 hours. 150 μL DMSO was added to each well to dissolve the MTT formazan precipitate. After being mixed by a micro-oscillator, the optical density (OD) was measured at the wavelength of 570 nm, and the tumor cells treated with DMSO were used as a control group.
In general terms: Tetrazolium dyes change colour on reduction, which living cells bring about.

PI3Kα, sequence (P42336 whole entry): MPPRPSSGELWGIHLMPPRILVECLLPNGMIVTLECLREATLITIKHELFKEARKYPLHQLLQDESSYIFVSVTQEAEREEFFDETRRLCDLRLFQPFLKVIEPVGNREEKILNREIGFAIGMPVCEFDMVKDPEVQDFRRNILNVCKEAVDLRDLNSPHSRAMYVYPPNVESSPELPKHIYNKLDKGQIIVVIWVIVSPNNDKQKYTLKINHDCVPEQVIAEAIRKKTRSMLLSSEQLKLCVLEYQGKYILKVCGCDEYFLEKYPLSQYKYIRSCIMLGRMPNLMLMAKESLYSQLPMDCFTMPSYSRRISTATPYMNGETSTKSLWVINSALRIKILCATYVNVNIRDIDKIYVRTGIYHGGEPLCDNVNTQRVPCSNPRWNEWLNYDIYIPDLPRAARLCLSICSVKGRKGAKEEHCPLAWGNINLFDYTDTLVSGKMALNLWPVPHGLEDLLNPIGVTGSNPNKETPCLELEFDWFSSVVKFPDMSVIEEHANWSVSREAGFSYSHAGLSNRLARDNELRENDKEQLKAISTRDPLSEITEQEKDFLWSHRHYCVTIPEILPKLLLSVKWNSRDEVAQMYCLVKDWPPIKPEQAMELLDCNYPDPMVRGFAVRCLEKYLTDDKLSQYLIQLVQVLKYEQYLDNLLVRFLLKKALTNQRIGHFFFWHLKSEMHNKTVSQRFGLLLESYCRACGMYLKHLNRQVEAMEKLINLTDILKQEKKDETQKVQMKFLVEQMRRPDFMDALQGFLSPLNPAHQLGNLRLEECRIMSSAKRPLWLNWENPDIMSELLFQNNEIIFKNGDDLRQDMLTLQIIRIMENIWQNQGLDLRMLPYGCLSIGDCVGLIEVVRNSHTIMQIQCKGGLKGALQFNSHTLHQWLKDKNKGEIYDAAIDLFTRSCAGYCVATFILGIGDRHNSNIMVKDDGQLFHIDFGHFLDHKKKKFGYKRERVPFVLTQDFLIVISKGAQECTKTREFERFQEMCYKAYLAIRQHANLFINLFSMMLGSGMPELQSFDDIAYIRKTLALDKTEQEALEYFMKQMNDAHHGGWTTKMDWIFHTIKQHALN
PI3Kα, sequence (P27986 whole entry partner): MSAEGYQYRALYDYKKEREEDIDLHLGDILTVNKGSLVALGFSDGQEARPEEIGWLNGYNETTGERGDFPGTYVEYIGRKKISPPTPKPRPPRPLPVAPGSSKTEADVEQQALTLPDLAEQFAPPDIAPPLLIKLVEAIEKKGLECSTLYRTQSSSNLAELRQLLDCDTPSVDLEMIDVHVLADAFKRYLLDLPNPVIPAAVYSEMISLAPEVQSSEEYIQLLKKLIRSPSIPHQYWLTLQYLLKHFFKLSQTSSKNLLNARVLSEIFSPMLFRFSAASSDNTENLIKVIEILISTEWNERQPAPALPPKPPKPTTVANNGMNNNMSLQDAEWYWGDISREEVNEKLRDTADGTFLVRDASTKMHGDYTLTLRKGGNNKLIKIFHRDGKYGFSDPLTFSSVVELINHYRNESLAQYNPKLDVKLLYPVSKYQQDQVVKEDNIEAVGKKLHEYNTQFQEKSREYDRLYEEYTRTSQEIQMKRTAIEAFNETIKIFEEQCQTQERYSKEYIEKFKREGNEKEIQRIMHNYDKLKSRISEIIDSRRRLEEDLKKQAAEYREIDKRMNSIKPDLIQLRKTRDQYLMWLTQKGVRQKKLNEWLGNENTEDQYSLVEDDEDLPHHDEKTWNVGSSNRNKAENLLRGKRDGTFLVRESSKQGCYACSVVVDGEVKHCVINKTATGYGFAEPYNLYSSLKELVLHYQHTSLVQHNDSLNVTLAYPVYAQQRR

In general, IC50 refers to the concentration at which inhibition is half-maximal. Read a high IC50 as weaker potency. Regarding `COc1ncc(-c2cc(O[C@H]3CC[C@H](OC)CC3)c3nc(N)nc(C)c3c2)cc1NS(=O)(=O)c1ccc(F)cc1F` (single isomer, unassigned) [Example 18-1, N-(5-(2-amino-8-((4-methoxycyclohexyl)oxy)-4-methylquinazolin-6-yl)-2-methoxypyridin-3-yl)-2,4-difluorobenzenesulfonamide], the IC50 came out at 1.1 nM in test [1] and 30 nM in test [2] (Homo sapiens, NCI-H460, 96 h).

With `COc1ncc(-c2cc(O[C@H]3CC[C@H](OC)CC3)c3nc(N)nc(C)c3c2)cc1NS(=O)(=O)c1ccc(F)cc1F` (single isomer, unassigned) [Example 18-2, N-(5-(2-amino-8-((4-methoxycyclohexyl)oxy)-4-methylquinazolin-6-yl)-2-methoxypyridin-3-yl)-2,4-difluorobenzenesulfonamide], the IC50 in test [1] amounted to 0.8 nM; in test [2] (96 hours), 57 nM.

With `COc1ncc(-c2cc(OC3CCOCC3)c3nc(N)nc(C)c3c2)cc1NS(=O)(=O)c1ccc(F)cc1Cl` [Example 2, N-(5-(2-amino-4-methyl-8-((tetrahydro-2H-pyran-4-yl)oxy)quinazolin-6-yl)-2-methoxypyridin-3-yl)-2-chloro-4-fluorobenzenesulfonamide], the IC50 in test [1] stood at 0.72 nM; in test [2] (Homo sapiens, NCI-H460, 96 h), 17 nM.

`COc1ncc(-c2cc(OC3CCOCC3)c3nc(N)nc(C)c3c2)cc1NS(=O)(=O)c1ccc(F)cc1` [Example 3, N-(5-(2-amino-4-methyl-8-((tetrahydro-2H-pyran-4-yl)oxy)quinazolin-6-yl)-2-methoxypyridin-3-yl)-4-fluorobenzenesulfonamide] registered an IC50 in test [2] (Homo sapiens, NCI-H460, 96 h) of 96 nM.

`COc1ncc(-c2cc(OC3CCOCC3)c3nc(N)nc(C)c3c2)cc1NS(=O)(=O)c1ccc(Cl)s1` [Example 4, N-(5-(2-amino-4-methyl-8-((tetrahydro-2H-pyran-4-yl)oxy)quinazolin-6-yl)-2-methoxypyridin-3-yl)-5-chlorothiophene-2-sulfonamide]: the IC50 in test [1] was 0.74 nM.

As for `COc1ncc(-c2cc(OC3CCOCC3)c3nc(N)nc(C)c3c2)cc1NS(C)(=O)=O` [Example 5, N-(5-(2-amino-4-methyl-8-((tetrahydro-2H-pyran-4-yl)oxy)quinazolin-6-yl)-2-methoxypyridin-3-yl)methanesulfonamide], the IC50 was determined as 2.7 nM in test [1] and 860 nM in test [2] (Homo sapiens, NCI-H460, 96 h).

Turning to `COc1ncc(-c2cc(OC3CCOCC3)c3nc(N)nc(C)c3c2)cc1NS(=O)(=O)C1CC1` [Example 6, N-(5-(2-amino-4-methyl-8-((tetrahydro-2H-pyran-4-yl)oxy)quinazolin-6-yl)-2-methoxypyridin-3-yl)cyclopropanesulfonamide], the IC50 in test [1] was 2.3 nM; in test [2] (Homo sapiens, NCI-H460, 96 h), 930 nM.

Take `Cc1ncc(-c2cc(OC3CCOCC3)c3nc(N)nc(C)c3c2)cc1NS(=O)(=O)c1ccc(F)cc1F` [Example 7, N-(5-(2-amino-4-methyl-8-((tetrahydro-2H-pyran-4-yl)oxy)quinazolin-6-yl)-2-methylpyridin-3-yl)-2,4-difluorobenzenesulfonamide]: the IC50 in test [1] came out at 1.1 nM; in test [2] (Homo sapiens, NCI-H460, 96 h), 2100 nM.

Turning to `Cc1nc(N)nc2c(OC3CCOCC3)cc(-c3cnc(Cl)c(NS(=O)(=O)c4ccc(F)cc4)c3)cc12` [Example 8, N-(5-(2-amino-4-methyl-8-((tetrahydro-2H-pyran-4-yl)oxy)quinazolin-6-yl)-2-chloropyridin-3-yl)-4-fluorobenzenesulfonamide], the IC50 in test [1] stood at 1 nM; in test [2] (Homo sapiens, NCI-H460, 96 h) it was 1200 nM.

As to `COc1ncc(-c2cc(O[C@@H]3CCOC3)c3nc(N)nc(C)c3c2)cc1NS(C)(=O)=O` [Example 10, (R)—N-(5-(2-amino-4-methyl-8-((tetrahydrofuran-3-yl)oxy)quinazolin-6-yl)-2-methoxypyridin-3-yl)methanesulfonamide], the IC50 was 3.8 nM in test [1] and 2200 nM in test [2] (Homo sapiens, NCI-H460, 96 h).

Consider `COc1ncc(-c2cc(O[C@H]3CCOC3)c3nc(N)nc(C)c3c2)cc1NS(=O)(=O)c1ccc(F)cc1F` [Example 11, (S)—N-(5-(2-amino-4-methyl-8-((tetrahydrofuran-3-yl)oxy)quinazolin-6-yl)-2-methoxypyridin-3-yl)-2,4-difluorobenzenesulfonamide], for which the IC50 in test [1] came to 0.94 nM; in test [2] (Homo sapiens, NCI-H460, 96 h), 94 nM.

Compound `COc1ncc(-c2cc(OC3CCOC(C)(C)C3)c3nc(N)nc(C)c3c2)cc1NS(=O)(=O)c1ccc(F)cc1F` (centres unmarked) [Example 19, N-(5-(2-amino-8-((2,2-dimethyltetrahydro-2H-pyran-4-yl)oxy)-4-methylquinazolin-6-yl)-2-methoxypyridin-3-yl)-2,4-difluorobenzenesulfonamide] showed a half-inhibitory concentration (IC50) in test [1] of 1 nM.

On to `COc1ncc(-c2cc(OCC3CCCO3)c3nc(N)nc(C)c3c2)cc1NS(=O)(=O)c1ccc(F)cc1F` (centres unmarked) [Example 20, N-(5-(2-amino-4-methyl-8-((tetrahydrofuran-2-yl)methoxy)quinazolin-6-yl)-2-methoxypyridin-3-yl)-2,4-difluorobenzenesulfonamide], for which half-maximal inhibition in test [1] (IC50) was put at 1.3 nM. The IC50 values of the last two compounds are within 1.5-fold of each other.

In the case of `COc1ncc(-c2cc(OCC3CCOC3)c3nc(N)nc(C)c3c2)cc1NS(=O)(=O)c1ccc(F)cc1F` (centres unmarked) [Example 21, N-(5-(2-amino-4-methyl-8-((tetrahydrofuran-3-yl)methoxy)quinazolin-6-yl)-2-methoxypyridin-3-yl)-2,4-difluorobenzenesulfonamide], the IC50 in test [1] was 1 nM.

`COc1ncc(-c2cc(OC3CCCC3)c3nc(N)nc(C)c3c2)cc1NS(=O)(=O)c1ccc(F)cc1F` [Example 23, N-(5-(2-amino-8-(cyclopentyloxy)-4-methylquinazolin-6-yl)-2-methoxypyridin-3-yl)-2,4-difluorobenzenesulfonamide]: the concentration for half-maximal inhibition (IC50) in test [1] was 1.1 nM. This IC50 and that of the compound before are within 1.5-fold of each other.

In test [1], `COc1ncc(-c2cc(OC3CCC3)c3nc(N)nc(C)c3c2)cc1NS(=O)(=O)c1ccc(F)cc1F` [Example 24, N-(5-(2-amino-8-cyclobutoxy-4-methylquinazolin-6-yl)-2-methoxypyridin-3-yl)-2,4-difluorobenzenesulfonamide] showed an IC50 of 0.8 nM.

Consider `CNc1nc(C)c2cc(-c3cnc(OC)c(NS(=O)(=O)c4ccc(F)cc4F)c3)cc(O[C@H]3CCOC3)c2n1` [Example 35, (S)—N-(2-methoxy-5-(4-methyl-2-(methylamino)-8-((tetrahydrofuran-3-yl)oxy)quinazolin-6-yl)pyridin-3-yl)-2,4-difluorobenzenesulfonamide], for which half-maximal inhibition in test [1] (IC50) was put at 1.8 nM.

Consider `CNc1nc(C)c2cc(-c3cnc(OC)c(NS(=O)(=O)c4ccc(F)cc4F)c3)cc(OC3CCCC3)c2n1` [Example 40, N-(5-(8-(cyclopentyloxy)-4-methyl-2-(methylamino)quinazolin-6-yl)-2-methoxypyridin-3-yl)-2,4-difluorobenzenesulfonamide], for which 8.5 nM corresponded to half-maximal inhibition in test [1] (IC50).

Regarding `CNc1nc(C)c2cc(-c3cnc(OC)c(NS(=O)(=O)c4ccc(F)cc4F)c3)cc(OC3CCC3)c2n1` [Example 41, N-(5-(8-cyclobutoxy-4-methyl-2-(methylamino)quinazolin-6-yl)-2-methoxypyridin-3-yl)-2,4-difluorobenzenesulfonamide], in test [1], the IC50 was determined as 5 nM.

The compound `COc1ncc(-c2cc(OCCN3CCOCC3)c3ncnc(C)c3c2)cc1NS(=O)(=O)c1ccc(F)cc1F` [Example 65, N-(2-methoxy-5-(4-methyl-8-(2-morpholinoethoxy)quinazolin-6-yl)pyridin-3-yl)-2,4-difluorobenzenesulfonamide] returned an IC50 in test [2] (Homo sapiens, NCI-H460, 96 h) of 630 nM.
